Reference: patent US10653691B2, “Method of promoting remyelination” (Case Western Reserve University, priority 2013, dated 2020)

Assays:
LPC lesion mouse model = assay: LPC-induced focal demyelination of the spinal cord and drug treatment; format: in vivo; details: for MBP staining in the lesions: 8 and 12 d.p.l.; for number of newly generated CC1+ oligodendrocytes in the lesion core: 8 d.p.l., miconazole 10 or 40 mg per kg, clobetasol 2 mg per kg, vs vehicle; for extent of remyelination (electron micrographs, toluidine blue): lesions of treated mice
Method: Focal demyelination in the spinal cord was induced by the injection of 1% LPC solution. Ten- to 12-week-old C57BL/6 female mice were anaesthetized using isoflurane and a T10 laminectomy was performed. One microlitre of 1% LPC was infused into the dorsal column at a rate of […]. The animals were euthanized either at day 8 or day 12 after the laminectomy (n=6-9 per group). Animals that were euthanized at day 8 received vehicle or drug daily by intraperitoneal injection between days 3 and 7. Animals used in the day 12 experiments received vehicle or drug daily by intraperitoneal injection between days 4 and 11. Drugs were dissolved in DMSO and then diluted with sterile saline for injection. Mice were deeply anaesthetized using ketamine/xylazine rodent cocktail and then euthanized by transcardial perfusion with 4% PFA for histological analysis or 4% PFA, 2% gluteraldehyde, and 0.1M sodium cacodylate for electron microscopy. PFA fixed tissue was equilibrated in 30% sucrose, embedded in OCT, and cryosectioned at 20 μm thickness and processed for CC1 and MBP immunohistochemistry. ImageJ was used to measure area of the lesion and CC1^+ cells within the lesion were scored manually. For CC1 scoring, sections were taken from the centre of each lesion to control for lesion variability.
Samples were processed as previously described.

mouse OPCs = assay: OPC differentiation into MBP+ oligodendrocytes; format: cell-based; details: for number of MBP+ oligodendrocytes by duration of treatment: 24, 48, 56 and 72 h; for number of MBP+ oligodendrocytes at 72 h by time of treatment start: treatment started at 0, 16, 24 or 48 h
Method: EpiSC-derived OPCs were seeded onto poly-D-lysine 96-well Viewplate or CellCarrier plates (PerkinElmer) coated with laminin (Sigma, L2020; 10 μgml^−1) using electronic multichannel pipetors. For the primary screen, 30,000 cells were seeded per well in screening medium (DMEM/F12 supplemented with N2 (R&D Systems), B-27 (Life Technologies), neurotrophin 3 (R&D Systems; 10 ng ml^−1), cAMP (Sigma; 50 μM), IGF-1 (R&D Systems; 100 ng ml^−1), noggin (R&D Systems; 100 ngml^−1)) and allowed to attach for 2 h before addition of drug. NIH Clinical Collection I and II drugs were added to assay plates with 0.1 ml pin replicators (Molecular Devices, Genetix; X5051), resulting in a final primary screening concentration of 5 μM. Thyroid-hormone-positive controls and DMSO vehicle controls were included in each assay plate. Cells were incubated under standard conditions (37° C., 5% CO2) for 3 days and fixed with 4% paraformaldehyde (PFA) in phosphate buffered saline (PBS). Fixed plates were permeabilized with 0.1% Triton X-100 and blocked with 10% donkey serum (v/v) in PBS for 2 h. Cells were labelled with MBP antibodies (Abcam, ab7349; 1:100) for 1 h at room temperature (˜22° C.) followed by detection with Alexa Fluorconjugated secondary antibodies (1:500) for 45 min. Nuclei were visualized by DAPI staining (Sigma; 1 μgml^−). All plates for the primary screen were processed and analyzed simultaneously to eliminate variability.
For the 5 μM in vitro screen, stained plates were imaged on the Opera confocal imaging system (PerkinElmer) and a set of 24×10 fields were collected from each well, resulting in an average of 10,000 cells being scored per well. For the dose-response (6.7 μM, 5 μM, 3.3 μM, 1.7 μM, 666 nM, 500 nM, and 333 nM) in vitro assays, plates were imaged on the Operetta High Content Imaging and Analysis system (PerkinElmer) and a set of 14×20 fields captured from each well resulting in an average of 3,300 cells being scored per well. […] Each traced nucleus region was then expanded by 50% and cross-referenced with the mature myelin protein (MBP or PLP1) stain to identify oligodendrocyte nuclei, and from this the percentage of oligodendrocytes was calculated. Processes emanating from oligodendrocyte nuclei were identified using the CSIRO2 analysis module within a custom Acapella script. Maximum mean process length (denoted ‘process length’) and mean process intensity (denoted ‘process intensity’) were generated on a per well basis. For the 5 μM in vitro screen, values were calculated and normalized to 100 for thyroid hormone (positive control)-treated wells and to 0 for DMSO(vehicle)-treated wells, on a per plate basis.

[1] = test system: muscarinic receptor subtypes (M1-M5); assay: Muscarinic receptor antagonism, GeneBLAzer or Tango cellular reporter assays; format: cell-based; details: 1 μM
Method: GeneBLAzer or Tango assays were performed to determine level of acetylcholine muscarinic receptor M1, M3, M5 (GeneBLAzer), M2 and […] (Tango) antagonism.

[2] = test system: hESC- and hiPSC-derived human OPCs; assay: Screening of human OPCs (MBP staining, HCA); format: cell-based; details: 21 days; miconazole 1 μM, clobetasol 5 μM; vs DMSO
Excerpt: Human OPCs were generated from skin fibroblast-derived human iPSC line (CWRU43, Tesar laboratory) and hESC lines H7 (NIH Human Embryonic StemCell RegistryWA07; NIH approval number NIHhESC-10-0061) and H9 (NIH Human Embryonic Stem Cell Registry WA09; NIH approval number NIHhESC-10-0062) as previously described. iPSC- and hESC-derived OPCs were characterized by Sox10 (R&D Systems, AF2864; 1:100) staining, and then seeded in 96-well plates at 40,000 cells per well for drug testing. […] Plates were fixed and stained with MBP (Abcam, ab7349; 1:100) then imaged on the Operetta system. We analysed results with slight modification to HCA Acapella scripts used for mouse oligodendrocytes.

[3] = test system: PLP139-151- or MOG35-55-sensitized lymph node cells; assay: Ex vivo lymphocyte recall assays; format: cell-based, mouse
MOG35-55 EAE mouse model = assay: MOG35-55 chronic progressive EAE model; details: for areas of myelin disruption in the white matter (luxol fast blue, MBP immunohistochemistry): cervical spinal cords; for functional improvement (disease score): daily i.p. for 10 days from peak of disease; for MBP expression and extent of demyelination in the spinal cord: histology after treatment, vs vehicle; for average clinical scores and cumulative clinical scores: larger treatment cohort, n=12 to 18 mice per group; for immune cell infiltration into the lesion areas (IBA1 staining): spinal cords after treatment
Method: Immunohistochemistry was performed as previously described. In short, tissue sections or whole slices were washed three times in PBS, blocked in PBS containing Triton X-100 (0.1%) and normal donkey serum (NDS, 2% for sections and 10% for cerebellar slices) and incubated with primary antibody overnight. For MBP immunohistochemistry, the primary antibody solution consisted of 2% NDS, 2% bovine serum albumin, and 0.1% saponin. For all other antibodies, the primary antibody solution consisted of 2% NDS and 0.1% Triton X-100. Primary antibodies used included rat anti-MBP (Abcam, ab7349; 1:100), mouse anti-APC CC1 clone (Millipore, MABC200; 1:500), and rabbit anti-IBA1 (Wako Chemicals, 019-19741; 1:1,000). The tissue was then washed in PBS and incubated in secondary antibodies for […]. Secondary detection was performed with Alexa Fluor-conjugated secondary antibodies (1:500) for 1 h. Luxol fast blue staining was performed as previously described.
Samples were processed as previously described. In short, samples were osmicated, stained en bloc with uranyl acetate, and embedded in EMbed 812, an Epon-812 substitute (EMS). Sections (1 μm) were cut and stained with toluidine blue and visualized on a light microscope (Leica DM5500B). Additional thin sections were cut, carbon coated and imaged either on a JEOL JEM-1200-EX electron microscope or a T12 electron microscope (FEI).
EAE was induced by immunizing 10-week-old C57BL/6 female mice with […] injection of […] complete Freund's adjuvant emulsion (Hooke Laboratories). One hour after immunization, mice were given 100 ng of pertussis toxin by 100 μl intraperitoneal injection. A second dose of pertussis toxin was administered the next day. EAE onset was monitored daily and scored using a clinical scale where 0 represented no abnormality; 1, limp tail; 2, limp tail and hind limb weakness; 3, hind limb paralysis; 4, hind limb paralysis and forelimb weakness; and 5, moribund. […] Once mice reached peak of disease ˜day 15; clinical score=3) they were randomized into treatment groups, and drug or vehicle (DMSO in saline) was administered intraperitoneally daily for 10 days (n=12-16 mice per group). […] Experimenters were blinded to the identity of the treatments and animals were scored daily. Cumulative disease scores for each animal were calculated during the treatment period, and a two-tailed t-test compared drug—with vehicle-treated groups. The extent of recovery for each animal was calculated as the difference between the peak disease score and the score at the end of each experiment, and a two-tailed t-test was used to compare each treatment with vehicle. External validation of MOG35-55 EAE experiments (n=12 mice per group) was performed at Hooke Laboratories with experimenters blinded to the identity of the substances.

glucocorticoid receptor = assay: Western blot of glucocorticoid receptor phosphorylation at Ser220 in OPCs; format: cell-based, mouse; details: OPCs treated for 1 h
Method: EpiSC-derived OPCs were seeded into poly-Lornithine/laminin coated six-well plates and allowed to attach for 2 h in DMEM/F12 without additional factors. Cells were treated with indicated inhibitors or DMSO for 1 h-SCH772984 (ChemieTek, 1 mM), SB590885 (Tocris, 10 nM), LY294002 (Tocris, 10 μM), and PD0325901 (Stemgent, 1 μM). Cells were then stimulated with drug or FGF2 (R&DSystems; 20 ng ml^−1) for 1 h and then lysed in 200 μL RIPA buffer (0.15 M NaCl, 0.05M Tris, pH=8.0, 1 mM EDTA, 1% Triton X-100, 0.1% SDS, 10% glycerol, HALT protease and phosphatase inhibitor (Thermo Fisher) added just before use) and incubated on ice for 20 min. Lysates were centrifuged at 4° C. and supernatant collected. Protein concentrations were determined by Pierce BCA protein assay kit (Thermo Fisher). […] Blots were blocked in either 5% BSA (phosphoprotein) or 5% milk (non phosphoprotein).

[4] = miconazole 10 mg/kg, clobetasol 2 mg/kg, benztropine 10 mg/kg

Row | SMILES | MBP staining in the lesions (LPC lesion mouse model) | number of newly generated CC1+ oligodendrocytes in the lesion core (LPC lesion mouse model) | extent of remyelination (electron micrographs, toluidine blue) (LPC lesion mouse model) | number of MBP+ oligodendrocytes by duration of treatment (mouse OPCs) | number of MBP+ oligodendrocytes at 72 h by time of treatment start (mouse OPCs) | inhibition of muscarinic receptor subtypes M1-M5 [1] | human OPC differentiation [2] | modulation of immune cell function ([3]; summary of immune cell survival and function assays) | areas of myelin disruption in the white matter (luxol fast blue, MBP immunohistochemistry) (MOG35-55 EAE mouse model) | functional improvement (disease score) (MOG35-55 EAE mouse model; [4]) | MBP expression and extent of demyelination in the spinal cord (MOG35-55 EAE mouse model) | average clinical scores and cumulative clinical scores (MOG35-55 EAE mouse model) | immune cell infiltration into the lesion areas (IBA1 staining) (MOG35-55 EAE mouse model) | myelin thickness relative to axon diameter (g ratio) (LPC lesion mouse model; 12 d.p.l., compared with intact myelin) | phosphorylation of glucocorticoid receptor at Ser220 (glucocorticoid receptor) | proliferation and secretion of cytokines by sensitized lymph node cells ([3]; 10^−9-10^−5 M) | overt toxicity to the animals (MOG35-55 EAE mouse model; miconazole 10 mg/kg, clobetasol 2 mg/kg, benztropine 10 mg/kg, daily i.p. 10 days)
1 | Clc1ccc(COC(Cn2ccnc2)c2ccc(Cl)cc2Cl)c(Cl)c1 (centres unmarked) [miconazole] | extensive MBP staining | significant increase in the number of newly generated CC1^+ oligodendrocytes | striking increase in the extent of remyelination | progressive, time-dependent increase | dependent on drug treatment within the first 24 h of differentiation | Neither miconazole nor clobetasol inhibited any of the five muscarinic receptor subtypes | enhanced human OPC differentiation, with miconazole exhibiting the most reproducible and potent effects | did not modulate immune cell function | decrease in areas of myelin disruption in the white matter | marked improvement in function | restoration of MBP expression and a reduction in the extent of demyelination in the spinal cord | significant reduction of disease and functional improvement | small reduction of immune cell infiltration into the lesion areas | – | – | – | –
2 | C[C@H]1C[C@H]2[C@@H]3CCC4=CC(=O)C=C[C@]4(C)[C@@]3(F)[C@@H](O)C[C@]2(C)[C@@]1(O)C(=O)CCl [clobetasol] | extensive MBP staining | significant increase in the number of newly generated CC1^+ oligodendrocytes | striking increase in the extent of remyelination | progressive, time-dependent increase | dependent on drug treatment within the first 24 h of differentiation | Neither miconazole nor clobetasol inhibited any of the five muscarinic receptor subtypes | enhanced human OPC differentiation | – | decrease in areas of myelin disruption in the white matter | marked improvement in function | restoration of MBP expression and a reduction in the extent of demyelination in the spinal cord | significant reduction of disease and functional improvement | small reduction of immune cell infiltration into the lesion areas, especially in clobetasol-treated animals, but not an abrogation | thinner than intact myelin | increased the phosphorylation of glucocorticoid receptor at Ser220 | altered naïve T-cell differentiation and both the proliferation and secretion of cytokines | no drugs showed any overt evidence of toxicity
